# Test results taken from US11286263B2, “Macrocyclic fluorine substituted indole derivatives” (The Broad Institute, Inc., priority 2017, dated 2022).
# “And” between values parts separate entries of the source, which are not always exact repeats. Equal entries are not always repeated. Where two headings read alike, the source gives them in different places.
# Tests used:
# [1] = amine bond, Cs2CO3
# MCL-1 = MCL-1 (Homo sapiens (Human), UniProt Q07820, K194A/K197A/R201A); assay: Protein-protein interaction assay MCL-1/Noxa BH3 peptide (MCL-1 assay), TR-FRET; format: binding; conditions: MCL-1/Noxa BH3 peptide TR-FRET; median
# MCL-1, sequence (Q07820 whole entry K194A/K197A/R201A, looked up): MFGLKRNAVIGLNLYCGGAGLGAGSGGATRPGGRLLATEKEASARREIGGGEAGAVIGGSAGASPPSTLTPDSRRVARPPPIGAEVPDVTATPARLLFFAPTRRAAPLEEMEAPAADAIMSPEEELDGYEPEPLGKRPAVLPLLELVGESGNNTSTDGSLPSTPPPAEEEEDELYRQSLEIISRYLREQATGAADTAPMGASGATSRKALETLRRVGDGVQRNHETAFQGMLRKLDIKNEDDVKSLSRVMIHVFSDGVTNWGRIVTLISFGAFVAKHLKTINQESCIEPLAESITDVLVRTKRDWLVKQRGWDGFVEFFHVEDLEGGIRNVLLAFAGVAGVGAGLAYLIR
# Experimental: Protein-Protein Interaction Assay: MCL-1/Noxa BH3 Peptide (MCL-1 Assay)
# The dose-dependent inhibition by the compounds described in this invention of the interaction between MCL-1 and the BH3 domain of Noxa (both human) was determined using a steady state binding competition assay with time-resolved fluorescence energy transfer (TR-FRET) readout. For that purpose MCL-1 (amino acids 173-321, N-terminal fused to Maltose Binding Protein (MBP) SEQ ID 1)) and a synthetic Noxa BH3-derived peptide of sequence Biotin-PEG2-PEG2-PAELEVE-Nva-ATQLRRFGDKLNFRQKLL-amide (SEQ ID 2) served as protein receptor and tracer ligand respectively. The MBP-MCL-1 was purchased from Beryllium (Bedford, Mass., USA). The expression and purification of this protein construct has been described elsewhere (DOI:10.1371/journal.pone.0125010). The Noxa BH3-derived peptide can be obtained from e.g. Biosyntan (Berlin, Germany).
# In the assay 11 different concentrations of each compound (0.1 nM, 0.33 nM, 1.1 nM, 3.8 nM, 13 nM, 44 nM, 0.15 μM, 0.51 μM, 1.7 μM, 5.9 μM and 20 μM) were typically measured as duplicates in the same microtiter plate. For that, 100-fold concentrated DMSO solutions were prepared by serial dilutions (1:3.4) of a 2 mM stock solution in a clear, 384-well microtiter plate (Greiner Bio-One, Frickenhausen, Germany). From there, 50 nl were transferred in a dark test plate (Greiner Bio-One, Frickenhausen, Germany). The assay was initiated by addition of 2 μl of a 2,5-fold concentrated MBP-MCL-1 solution (usually for a 1 nM end concentration in 5 μl reaction volume) in aqueous assay buffer [50 mM Tris/HCl pH 7, 100 mM sodium chloride (NaCl), 50 mM potassium fluoride (KF), 0.005% Tween-20, 2 mM DTT, 0.1% bovine gamma globulin (BGG)] to the compounds in the assay plate. This was followed by a 10-minute incubation step at 22° C. for pre-equilibration of the putative complex between MBP-MCL-1 and the compounds. After that, 3 μl of a 1.67-fold concentrated solution (in assay buffer) consisting of Noxa BH3-derived peptide (1 nM end concentration) and TR-FRET detection reagents [1.67 nM anti-MBP-Eu cryptate and 1.67 nM streptavidin-XL665 (both from Cisbio Bioassays, Codolet, France)], were added.
# The mixture was incubated in the dark for one hour at 22° C. and then overnight at 4° C. The formation of MCL-1/Noxa complexes was determined by measuring the resonance energy transfer of the anti-MBP-Eu-cryptate antibody to the streptavidin-XL665 present in the reaction. For that purpose, the fluorescence emission at 620 nm and 665 nm after excitation at 330-350 nm was measured in a TR-FRET measuring instrument, for instance a Rubystar or a Pherastar (both from BMG Lab Technologies, Offenburg, Germany) or a Viewlux (Perkin-Elmer). The ratio of the emission at 665 nm and at 622 nm was used as indicator of the amount of MCL-1/NOXA complexes present.
# The resulting data (ratio) were normalized, taking 0% inhibition as the mean value of control measurements (usually 32 data points) where all reagents were included. In this case 50 nl DMSO were used instead of compounds. A 100% inhibition corresponded to the mean value of control measurements (usually 32 data points) where all reagents except MCL-1 were included. IC50 values were determined by regression analysis based on a 4 parameter equation (minimum, maximum, IC50, Hill; Y=Max+(Min−Max)/(1+(X/IC50)^Hill) using the Screener Software (Genedata).
# SUDHL10 [2] = assay: Induction of caspase-3/7 activity, SUDHL10 (Assay 4); format: cell-based; conditions: SUDHL10 cells
# Experimental: (§1) Induction of Caspase-3/7 Activity upon Treatment of Cells with Selected Compounds
# (§2) The BH3-domain of MCL-1 sequesters pro-apoptotic proteins, thereby inhibiting apoptosis. In contrast, MCL-1 inhibitors are expected to antagonize this effect leading to an increase in apoptosis, which can be determined by measuring the activity of caspase-3/7.
# (§3) The activity of caspase-3/7 was determined in DLBCL (Diffuse large B-cell lymphoma) cell lines (SUDHL5 and SUDHL10) upon treatment with different compounds, using the Caspase-Glo® 3/7 reagent from Promega (G8092).
# (§4) Rim wells were excluded. The cells were incubated for 3 h hours in a humidified incubator at 37° C.
# (§5) For the evaluation of the results, the background measured with “medium-only” was subtracted from all other values. […] The Bella DRC Master Sheet was used to calculate EC50s, with fixed C0=1 and Cl=plateau/max induction for the reference compound.
# AMO-1 = assay: Antiproliferation assay AMO-1 (Assay 7); format: cell-based; conditions: AMO-1 cells, CellTiter-Glo, single determinations, read-out: IC50 Antiproli AMO-1
# Experimental: (§6) Assessment of the Anti-Proliferative Effect of Compounds in Different Cell Lines
# (§7) The impact of compounds on the proliferation of different cell lines was assessed using the CellTiter-Glo® Luminescent Cell Viability reagent from Promega (G7573).
# (§8) In parallel, cells were plated in a reference (day 0) plate for time zero determination.
# (§9) Rim wells were excluded. The cells were incubated for 72 h hours in a humidified incubator at 37° C. The day 0 plate was measured by adding 30 μL/well of CTG solution (CellTiter-Glo® Luminescent Cell Viability reagent, Promega G7573) to time zero wells in the reference plate followed by a 10 minutes incubation and luminescence reading at 0.1 ms. using the PHERAstar FS microplate reader (BMG Labtech).
# (§10) After 72 h incubation, the treated plates were measured in the same way as the day 0 plate mentioned above.
# SUDHL5 [3] = assay: Antiproliferation assay SUDHL5 (Assay 7); format: cell-based; conditions: SUDHL5 cells, CellTiter-Glo, median, read-out: IC50 Antiproli SUDHL5 [M] (median)
# Experimental: as §6, §7, §8, §9, §10
# HMC-1-8 = assay: Antiproliferation assay HMC-1-8 (Assay 7); format: cell-based; conditions: HMC-1-8 cells, 72 h, CellTiter-Glo; single determinations; read-out: IC50 Antiproli HMC-1-8
# Experimental: as §6, §7, §8, §9, §10
# SUDHL5 [4] = assay: Induction of cytotoxicity, SUDHL5 (Assay 6); conditions: read-out: IC50 Cytotox SUDHL5 [M] (median), SUDHL5 cells, 5 h, CellTiter-Glo
# SUDHL10 [5] = assay: Induction of cytotoxicity, SUDHL10 (Assay 6); conditions: read-out: IC50 Cytotox SUDHL10 [M] (median), SUDHL10 cells, 5 h, CellTiter-Glo
# Experimental: In principle, compounds that induce apoptosis will concomitantly induce cell cytotoxicity. Therefore, cytotoxicity assays were run in parallel in SUDHL5 and SUDHL10 cells.
# The different cell lines were plated in culture medium (RPMI 1640 [GIBCO #22400-089] supplemented with 10% Fetal Bovine Serum) at a density of 3,300 cells in 30 μl/well in a sterile, solid black, flat bottom, polystyrene, TC-treated 384-well microplate (Corning #3571) using Multidrop Combi Reagent Dispenser. As a control, medium without cells was also added to the plate. Cells were incubated in a humidified incubator at 37° C. overnight. On the next day, the cells were treated with compounds (stock solution, 10 mM in DMSO) using the HP D300 Digital Dispenser in a concentration range of 3.3×10e-5 M (33 μM) to 5×10e-9 M (5 nM) in a single-dot curve with at least 16 dilutions and a DMSO concentration of 0.33%. Rim wells were excluded. The cells were incubated for 5 h hours in a humidified incubator at 37° C. After this incubation, 30 μl of CellTiter-Glo® Luminescent Cell Viability reagent (Promega, G7573) was added to each well using the Multidrop Combi Reagent Dispenser, followed by 15 min incubation on a shaker at room temperature. Finally, luminescence was read at 0.1 ms, with a gain of 3000 using the PHERAstar FS microplate reader (BMG Labtech).
# The Bella DRC Master Sheet was used to calculate IC50s, with fixed CI=0 and C0=1.
# SUDHL5 [6] = assay: Induction of caspase-3/7 activity, SUDHL5 (Assay 4); format: cell-based; conditions: Homo sapiens, SU-DHL-5, 3 h, SUDHL5 cells, Caspase-Glo 3/7, median
# Experimental: as §1, §2, §3, §4, §5
# SK-BR-3 = assay: Antiproliferation assay SK-BR-3 (Assay 7); format: cell-based; conditions: Homo sapiens, SK-BR-3, 72 h, SK-BR-3 cells, CellTiter-Glo, single determinations, read-out: IC50 Antiproli SK-BR-3
# Experimental: as §6, §7, §8, §9, §10
# A2780 = assay: Antiproliferation assay A2780 (Assay 7); format: cell-based; conditions: A2780 cells, CellTiter-Glo, single determinations, read-out: IC50 Antiproli A2780
# Experimental: as §6, §7, §8, §9, §10
# MV-4-11 = assay: Antiproliferation assay MV-4-11 (Assay 7); format: cell-based; conditions: MV-4-11 cells, CellTiter-Glo, single determinations, read-out: IC50 Antiproli MV-4-11
# Experimental: as §6, §7, §8, §9, §10
# SUDHL10 [7] = assay: Antiproliferation assay SUDHL10 (Assay 7); format: cell-based; conditions: Homo sapiens, SU-DHL10; SUDHL10 cells, 72 h, CellTiter-Glo; median; read-out: IC50 Antiproli SUDHL10 [M] (median)
# Experimental: as §6, §7, §8, §9, §10
# [8] = Homo sapiens, SU-DHL10, 3 h, Caspase-Glo 3/7, median
IC50 (MCL-1) [nM],EC50 (SUDHL5 [6]) [nM],EC50 (SUDHL10 [2]; [8]) [nM],"IC50 (SUDHL5 [3]; Homo sapiens, SU-DHL-5, 72 h) [M]","IC50 (A2780; Homo sapiens, A2780, 72 h) [nM]",IC50 (SUDHL10 [7]) [M],Structure (SMILES),IC50 (AMO-1; 72 h),"IC50 (AMO-1; Homo sapiens, AMO1, 72 h) [nM]","IC50 (SUDHL5 [4]; Homo sapiens, SU-DHL-5, 5 h) [M]","IC50 (SUDHL10 [5]; Homo sapiens, SU-DHL10, 5 h) [M]",also measured
13,–,–,–,–,–,"CCc1c2c(nn1C)COCCCCn1c(C(=O)O)c(CCCOc3cccc4cc(F)ccc34)c3ccc(F)c-2c31 (single isomer, unassigned; enantiomer 2) [Example 25, 3-ethyl-4-fluoro-7-{3-[(6-fluoronaphthalen-1-yl)oxy]propyl}-2-methyl-2,10,11,12,13,15-hexahydropyrazolo[4′,3′:9,10][1,6]oxazacycloundecino[8,7,6-hi]indole-8-carboxylic acid (enantiomer 2)]",32800 nM,–,–,–,"EC50 (SUDHL10 [2]; 3 h, Caspase-Glo 3/7, median): > 33000 nM; IC50 (SUDHL5 [3]; 72 h): 8.1e-06 M; IC50 (HMC-1-8): 20900 nM; IC50 (SUDHL5 [4]): 1.2e-05 M; IC50 (SUDHL10 [5]): 2.2e-05 M"
0.86,350,900,7.3e-07,3470,6.3e-07,"CCc1c2c(nn1C)COCCCCn1c(C(=O)O)c(CCCOc3cccc4cc(F)ccc34)c3ccc(F)c-2c31 (racemic) [Example 21, (rac)-12-ethyl-13-fluoro-1-(3-((6-fluoronaphthalen-1-yl)oxy)propyl)-11-methyl-4,5,6,7,9,11-hexahydropyrazolo[4′,3′:9,10][1]oxa[6]azacycloundecino[8,7,6-hi]indole-2-carboxylic acid]",942 nM and 1120 nM,1220,5.1e-07,8.5e-07,–
1.1,870,2000,9.3e-07,–,1e-06,"CCc1nn(C)c2c1-c1c(F)ccc3c(CCCOc4cccc5cc(F)ccc45)c(C(=O)O)n(c13)CCCCOC2 (racemic) [Example 38, (rac)-12-ethyl-13-fluoro-1-(3-((6-fluoronaphthalen-1-yl)oxy)propyl)-10-methyl-4,5,6,7,9,10-hexahydropyrazolo[4′,3′:9,10][1]oxa[6]azacycloundecino[8,7,6-hi]indole-2-carboxylic acid]",2460 nM and 1610 nM,2350,1e-06,1.4e-06,–
0.85,480,800,6.5e-07,4680,7.2e-07,"Cc1c2c(nn1C)COCCCCn1c(C(=O)O)c(CCCOc3cccc4cc(F)ccc34)c3ccc(F)c-2c31 (racemic) [Example 12, (rac)-13-fluoro-1-(3-((6-fluoronaphthalen-1-yl)oxy)propyl)-11,12-dimethyl-4,5,6,7,9,11-hexahydropyrazolo[4′,3′:9,10][1]oxa[6]azacycloundecino[8,7,6-hi]indole-2-carboxylic acid]",869 nM,1510,6e-07,8.2e-07,–

# Second part, the compound before the results:
Structure (SMILES),IC50 (MCL-1) [nM],EC50 (SUDHL5 [6]) [nM],EC50 (SUDHL10 [2]; [8]) [nM],"IC50 (SUDHL5 [3]; Homo sapiens, SU-DHL-5, 72 h) [M]","IC50 (A2780; Homo sapiens, A2780, 72 h) [nM]",IC50 (SUDHL10 [7]) [M],IC50 (AMO-1; 72 h),"IC50 (AMO-1; Homo sapiens, AMO1, 72 h) [nM]","IC50 (SUDHL5 [4]; Homo sapiens, SU-DHL-5, 5 h) [M]","IC50 (SUDHL10 [5]; Homo sapiens, SU-DHL10, 5 h) [M]",also measured
CCOC(=O)c1c(CCCO)c2ccc(F)c3c2n1CCCCN(C)Cc1nn(C)c(CC)c1-3,–,–,–,–,–,–,–,–,–,–,"ring closure, yield of all isomers ([1]; from CCOC(=O)c1c(CCCO[Si](C)(C)C(C)(C)C)c2ccc(F)c(-c3c(CBr)nn(C)c3CC)c2n1CCCCN(C)C(=O)OC(C)(C)C, acetonitrile, 44.5 mM, 60.0 °C, 6.0 h, 2 steps): 46%"
"CCc1c2c(nn1C)COCCCCn1c(C(=O)O)c(CCCOc3cccc4ccccc34)c3ccc(F)c-2c31 (racemic) [Example 6, (rac)-3-ethyl-4-fluoro-2-methyl-7-[3-(naphthalen-1-yloxy)propyl]-2,10,11,12,13,15-hexahydro-pyrazolo[4′,3′:9,10][1,6]oxazacycloundecino[8,7,6-hi]indole-8-carboxylic acid]",1.1,400,1100,9.8e-07,14500,–,–,2630,6.4e-07,1.3e-06,"IC50 (SK-BR-3): 7290 nM; IC50 (A2780; 72 h, listed as 06): 10600 nM and 13100 nM; IC50 (MV-4-11; Homo sapiens, MV4-11, 72 h): 3830 nM; IC50 (MV-4-11; 72 h, listed as 06): 2820 nM and 2760 nM and 2350 nM"
CCOC(=O)c1c(CCCOc2cccc3ccccc23)c2ccc(F)c3c2n1CCCCNCc1nn(C)c(C)c1-3,–,–,–,–,–,–,–,–,–,–,"ring closure, yield of all isomers ([1]; from CCOC(=O)c1c(CCCOc2cccc3ccccc23)c2ccc(F)c(-c3c(CBr)nn(C)c3C)c2n1CCCCN, DMF, 10.0 mM, 65.0 °C, 17.0 h): 48.6%"
